Source: patent publication US10174015B2, “Substituted heterocyclic derivative, preparation method and use thereof” (Xiamen University, priority 2014, dated 2019)
Read-outs that look alike come from different tables or passages of the source. Marks after values point to notes of the source that are not given here.

Tests used:
[1] = tested on: inflammatory abdominal pain caused by acetic acid; assay: Abdominal inflammatory pain caused by acetic acid; format: in vivo, Kunming mice; settings: mice, 10 mg/kg i.p. 1 h before acetic acid; indometacin 20 mg/kg (FIG. 4)
Method: In the Experimental example, compounds to be evaluated or compounds to be tested or test compounds used are the Compounds 1-46 prepared in the Examples according to the invention. In the Experimental example, all the agents for injection, including compounds to be evaluated or compounds to be tested or test compounds, and positive control drug, were dissolved in a mixed solvent of PEG400:Tween 80:normal saline (at a volume ratio of 5:5:90), at a concentration of 5 mg/mL.
Typical model for studying inflammation-induced visceral pain medically was used to evaluate the therapeutic effects of compounds on inflammatory visceral pain. The model can represent general visceral pain including, but not only limited to appendicitis, gastritis, pancreatitis, prostatitis, myocarditis, interstitial cystitis, pain caused by hepatic, gall or kidney stone, irritable bowel syndrome, and chronic pelvic pain syndrome.
Experimental Kunming mice (purchased by Xiamen University Laboratory Animal Center from Shanghai SLAC Laboratory Animal Co., Ltd) were in an experimental environment with free access to food and water for 1 week. The mice were fasted for 24 h before administration. The compound to be evaluated (10 mg/kg) was administered to the mice by intraperitoneal injection at 1 h before administration of acetic acid, wherein the positive control drug indometacin was administered at a dose of 20 mg/kg, and the blank control was normal saline. Acetic acid (50 μL, acetic acid dissolved in normal saline, at a concentration of 5%) was administered to the mice by intraperitoneal injection, and the mice were then placed in the observation cage. A video camera was used to record the behavior of the mice in the following 20 min. Pain-related behavior was analyzed statistically based on torsion times of the mice in said period.

[2] = tested on: adjuvant-induced arthritis rat models; assay: Adjuvant-induced osteoarthritis pain, foot swelling degree; format: in vivo, rats; settings: 10 mg/Kg; for Foot swelling degree after inflammation: X ± S, n = 10; for effect of inhibiting osteoarthritis pain: rats, indometacin 10 mg/Kg
Method: Typical model for studying inflammatory pain medically was used to evaluate the therapeutic effects of compounds on inflammatory pain. 0.1 mL Freund's complete adjuvant was intradermally injected to toe of the left hind foot of the rats in each group to obtain adjuvant-induced arthritis rat models. Foot volume method was used to measure primary and secondary foot swelling degree (swelling degree=volume after inflammation−volume before inflammation), and polyarticular arthritis were scored (5 scoring grades: 0 represents no red swelling; 4 represents red swelling at all the paws including anklebone. The scores are accumulated according to the lesion degree of the rest three limbs not injected with adjuvant, and the highest score is 12). Before inflammation and at 6 h, 12 h, 18 h and 24 h after inflammation, Paw Volume Meter was used to measure the foot volume at the inflammatory side, and the swelling degree was calculated. The model can represent inflammatory pain including, but not only limited to: osteoarthritis pain and fibromyalgia syndrome, inflammatory pain of rheumatic and rheumatoid arthritis, inflammatory pain of endometriosis, inflammatory toothache, ankylosing spondylitis pain, and gouty arthritis pain.

[3] = Stability assays at acidic and basic conditions; format: physicochemical
Method: The sample containing the compound to be tested was then incubated in a constant temperature shaker at 37° C. At different time points (0 min, 10 min, 30 min, 1 h, 2 h, 4 h, 6 h, 12 h, 24 h), 50 μL sample was taken and added to 150 μL precooled methanol (containing the internal standard E8, 1 nmol/sample), wherein three parallel samples were prepared for each time point. The samples were then vertically mixed well, and transferred to a sample vial. LC-MS/MS was used to measure the peak area at different time points, Analyst® version 1.4.1. software was used to analyze chromatographic peak, and the content of the target compound was calculated based on the standard curve.

[4] = Assay on drug metabolism in rat; format: in vivo, SD rats; settings: SD, plasma, iv, 30 mg/Kg via jugular vein
Description: 50 SD rats (purchased from Shanghai SLAC Laboratory Animal Co., Ltd) were divided into 5 groups randomly, 10 rats per group. After anesthesia with ether, rat was fixed on the operating table on its back, and was shaved at the operative site of neck. After disinfection with 75% alcohol, the neck was cut about 1.5 cm longitudinally, muscle tissues and nervi vascularis surrounding trachea were separated by blunt dissection, and carotid artery was separated by blunt dissection. Ligation was performed at distal end, an artery clamp was used at proximal part, and the distance between them was about 1 cm. A small cut was made with a pair of ophthalmic scissors at proximal part close to the ligated site, and arterial duct was introduced from the small cut to the proximal part, the artery clamp was loosened, the arterial ostium was clamped with smooth forceps, whilst the arterial duct was delivered to heart ventricle. Upon the introduction of the arterial duct into heart ventricle, the blood vessel was ligated. By using the same intubation method for artery, intubation was applied to jugular veins. After intubation, a tubule filled with heparin sodium was drawn out from artery and vein, which passed through the skin under the ear of the rat and drawn out from the dorsal part skin of the neck of the rat, and the tubule was fixed well. The muscles and skin were sutured at the surgical site of the rat, and normal saline containing heparin sodium was injected from time to time via the tubule connecting the artery and the vein to prevent tubule obstruction due to blood coagulation. The rat was placed in a warm and clean cage provided with water and food, waiting for the rat to wake up naturally.
After the rat regained consciousness and acted normally, assay on metabolic stability of compounds was performed in the rat. All the agents to be injected (including compounds to be tested and control drug) were dissolved in a mixed solvent of PEG400:Tween 80:normal saline (at a volume ratio of 5:5:90), at a concentration of 5 mg/mL. The agent was injected slowly at a dose of 30 mg/Kg via the tubule drawn out from the jugular vein. After administration, the time was recorded, and blood was collected from the tubule drawn out from carotid artery at 2, 5, 10, 20, 30, 60, 240, 360, and 720 min, in an amount of 200 μL for each time. The whole blood was placed in commercially available heparin sodium blood-collecting tube (Jiangxi Jingzhi Medical Equipment Co., Ltd.), centrifuged at 1800 g for 15 min. To the supernatant plasma, 150 μL pre-cooled methanol stopping buffer (containing internal standard E8, 1 nmol/sample) was added, vertically mixed well, and then centrifuged at 4° C., 12000 g for 10 min. The supernatant was transferred to a sample vial, the target compound was detected by LC-MS/MS, and the content of the compound was calculated by virtue of standard curve.

[5] = PBS pH 5.0, 37° C., read-out: Half-life pH 5.0
[6] = PBS pH 7.4, 37° C., read-out: Half-life pH 7.4

| SMILES | effect of inhibiting abdominal inflammatory pain [1] | Foot swelling degree after inflammation ([2]; 6 h) | Foot swelling degree after inflammation ([2]; 12 h) | Foot swelling degree after inflammation ([2]; 18 h) | Foot swelling degree after inflammation ([2]; 24 h) | effect of inhibiting osteoarthritis pain [2] | half-life at 1 μM [3, 5] [h] | half-life at 1 μM [3, 6] [h] | half-life [4] [h] |
| --- | --- | --- | --- | --- | --- | --- | --- | --- | --- |
| O=C(CCCCCc1cccc(Cl)c1)N1CCOC1=O [Compound 9, 3-Chlorophenylhexanoyl Oxazolidinone] | significant effects of inhibiting abdominal inflammatory pain | 0.44 ± 0.09^c mL | 0.75 ± 0.24^c mL | 1.24 ± 0.24^b mL | 1.06 ± 0.18^c mL | significant effects of inhibiting osteoarthritis pain | > 24 | > 24 | 1.95 |
| O=C(CCCCCc1ccccc1)N1CCOC1=O [Compound 2, Phenylhexanoyl Oxazolidinone] | significant effects of inhibiting abdominal inflammatory pain | 0.35 ± 0.07^c mL | 0.65 ± 0.13^c mL | 1.06 ± 0.14^c mL | 0.89 ± 0.21^c mL | significant effects of inhibiting osteoarthritis pain | > 24 | > 24 | 2.4 |
